Holding throughout (assay): NCI tumour cell line growth inhibition, 48 h
Experiment [1] has as its system ACHN renal.
The test system of experiment [2] is SW-620 colon.
In experiment [3] the test system is HOP-92 NSCLC.
Experiment [4] concerns UACC-62 melanoma.
The subject of experiment [5] is T-47D breast.
For experiment [6], the system named is IGROV1 ovarian.
The subject of experiment [7] is MCF7 breast.
Experiment [8] deals with SK-MEL-5 melanoma.
Experiment [9] relates to SK-MEL-2 melanoma.
For experiment [10], the system named is SNB-75 CNS.
Experiment [11] deals with RPMI-8226 leukemia.
Experiment [12] deals with EKVX NSCLC.
The test system of experiment [13] is MOLT-4 leukemia.

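All cell lines were grown in 96-well plates and treated with compound for 48 hours. TGI: total growth inhibition.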

The record followed here is PubChem BioAssay (NCI).

Take `O=C(/N=C1/OC(CN2CCOCC2)CN1C(=O)Nc1ccccc1)Nc1ccccc1` (stereo not drawn): the TGI in [1], in experiment [2], in experiment [3], in [4], in experiment [5] and in [6] was above 100 µM throughout. The TGI in experiment [7], in experiment [8], in experiment [9], in experiment [10], in experiment [11] and in [12] was above 100 µM each time. This compound also came in with a TGI in [13] above 100 µM.

`O=C1/C(=C/c2ccc(OC(=O)c3ccc(Cl)cc3)cc2)CCC/C1=C\c1ccc(OC(=O)c2ccc(Cl)cc2)cc1`: the TGI in [1], in experiment [2], in [3], in experiment [4], in [5] and in experiment [6] was above 100 µM in each case. Besides, the TGI is above 100 µM in [7]; above 100 µM in experiment [8]; above 100 µM in [9]; 60.8 µM in experiment [10]; above 100 µM in [11]; above 100 µM in experiment [12]. In experiment [13], this compound came in with a TGI above 100 µM.

As for `CC(C)=CC[C@H]1C[C@@]2(CC=C(C)C)C(=O)/C(=C(/O)c3ccccc3)C(=O)[C@](CC=C(C)C)(C2=O)C1(C)C`, the TGI came out at 21.8 µM in experiment [1]; 54.9 µM in experiment [2]; 19.1 µM in experiment [3]; 13.6 µM in experiment [4]; 35.2 µM in experiment [5]; 20.3 µM in [6]. Moreover, the TGI in experiment [7] was 21.5 µM; in experiment [8], 17.8 µM; in experiment [9], 8.24 µM; in experiment [10], 33.4 µM; in [11] it was above 100 µM; in experiment [12] it was 20 µM. The TGI in experiment [13] is above 100 µM.

For the compound `COc1ccc2cc(/C=N\NC(=O)Nc3ccc([N+](=O)[O-])cc3)ccc2c1`, the TGI is 19.8 µM in experiment [1]; above 31.6 µM in experiment [2]; 32.4 µM in experiment [3]; 19.2 µM in [4]; 19.5 µM in experiment [5]; 23.2 µM in experiment [6]. Besides, the TGI in [7] is above 31.6 µM; in experiment [8], 17.7 µM; in experiment [9], 20.5 µM; in [10], 23.1 µM; in [11], 29.1 µM; in [12] it was 25 µM. This compound also showed a TGI in [13] of 21.8 µM.

For `O=C1Nc2ccccc2/C1=N/N1C(=O)/C(=C/c2ccccc2S)N=C1c1ccccc1`, the TGI in experiment [1] was above 100 µM; in experiment [2], above 100 µM; in experiment [3] it was above 100 µM; in experiment [4], above 100 µM; in [5], 81.8 µM; in experiment [6], above 100 µM. Further, the TGI in [7], in experiment [8], in experiment [9], in experiment [10], in [11] and in experiment [12] was above 100 µM each time. Moreover, the TGI in experiment [13] was above 100 µM.

`O=C1O/C(=C(/Cl)c2c3ccccc3cc3ccccc23)c2ccccc21`: the TGI is 82.9 µM in [1]; above 100 µM in experiment [2]; 50.3 µM in experiment [3]; above 100 µM in [4]; above 100 µM in experiment [5]; 71.2 µM in experiment [6]. The TGI in [7] was above 100 µM; in experiment [8] it was 30.7 µM; in experiment [9] it was 51.2 µM; in experiment [10], 36.6 µM; in [11] it was 66.4 µM; in experiment [12] it was above 100 µM. This compound had a TGI in experiment [13] above 100 µM.

Take `N/N=C(/CC(O)(C(F)(F)F)C(F)(F)F)c1ccccc1`: the TGI in experiment [1], in [2], in experiment [3], in [4], in experiment [5] and in [6] was above 10 µM in each case. In addition, the TGI in [7], in experiment [8], in experiment [9], in [10], in [11] and in experiment [12] was above 10 µM in each case. The same compound showed a TGI in [13] above 10 µM.

For the compound `O=C(CSc1nc2ccc(I)cc2c(=O)n1Cc1ccccc1)NN1C(=O)CSC1c1ccccc1` (stereo not drawn), the TGI in experiment [1] is 33.1 µM; in experiment [2], above 100 µM; in experiment [3] it was 46.9 µM; in experiment [4], 36.7 µM; in experiment [5], 92.5 µM; in experiment [6], 55.6 µM. Moreover, the TGI in [7] is 42.1 µM; in experiment [8], 42.6 µM; in experiment [9], 50.8 µM; in experiment [10], above 100 µM; in experiment [11] it was above 100 µM; in [12], 86.2 µM. In [13], this compound yielded a TGI above 100 µM.

On to `CCN(CC)c1ccc2cc(-c3csc(C)n3)c(=O)oc2c1`, for which the TGI in experiment [1] was above 100 µM; in experiment [2], above 100 µM; in experiment [3] it was 92.7 µM; in experiment [4] it was above 100 µM; in experiment [5], above 100 µM; in experiment [6] it was above 100 µM. Besides, the TGI was above 100 µM in [7]; above 100 µM in experiment [8]; above 100 µM in experiment [9]; 9.42 µM in [10]; above 100 µM in experiment [11]; above 100 µM in [12]. Besides, the TGI in experiment [13] is above 100 µM.

For `Cc1ccc(S(=O)(=O)OI(O)CC(F)(F)F)cc1`, the TGI in experiment [1], in [2], in experiment [3], in experiment [4], in experiment [5] and in experiment [6] was above 100 µM throughout. The TGI in experiment [7], in [8], in experiment [9], in [10], in experiment [11] and in experiment [12] was above 100 µM each time. Besides, the TGI in experiment [13] was above 100 µM.

Regarding `CC1=NN(C(=O)CC(=O)Nc2ccc(Cl)cc2)C(=O)C1N=Nc1ccc(S(=O)(=O)c2ccc(N=NC3C(=O)N(C(=O)CC(=O)Nc4ccc(Cl)cc4)N=C3C)cc2)cc1` (stereo not drawn), the TGI in experiment [1], in [2], in [3], in [4], in experiment [5] and in experiment [6] was above 100 µM in each case. In addition, the TGI in experiment [7], in experiment [8], in experiment [9], in [10], in [11] and in [12] was above 100 µM throughout. In experiment [13], the TGI was above 100 µM.
